Columns and labels:
Assay type in all cases: functional
[1] = test system: Peptostreptococcus anaerobius; test: Antibacterial activity against Peptostreptococcus anaerobius by CLSI M11-A6 agar dilution method
[2] = test system: Clostridium bolteae; test: Antibacterial activity against Clostridium bolteae by CLSI M11-A6 agar dilution method; settings: Enterocloster bolteae
[3] = test system: Parabacteroides merdae; test: Antibacterial activity against Parabacteroides merdae by CLSI M11-A6 agar dilution method
[4] = test system: Coriobacterium; test: Antibacterial activity against […] by CLSI M11-A6 agar dilution method
[5] = test system: Clostridium sporogenes; test: Antibacterial activity against Clostridium sporogenes by CLSI M11-A6 agar dilution method
[6] = test system: Blautia luti; test: Antibacterial activity against Ruminococcus luti by CLSI M11-A6 agar dilution method
[7] = test system: Clostridium tertium; test: Antibacterial activity against Clostridium tertium by CLSI M11-A6 agar dilution method
[8] = test system: Prevotella intermedia; test: Antibacterial activity against Prevotella intermedia by CLSI M11-A6 agar dilution method
[9] = test system: Ruminococcus gnavus; test: Antibacterial activity against Ruminococcus gnavus by CLSI M11-A6 agar dilution method; settings: Mediterraneibacter gnavus
[10] = test system: Clostridium glycolicum; test: Antibacterial activity against Clostridium glycolicum by CLSI M11-A6 agar dilution method; settings: Terrisporobacter glycolicus
[11] = test system: Hoylesella oralis; test: Antibacterial activity against Prevotella oralis by CLSI M11-A6 agar dilution method
[12] = test system: Bacteroides fragilis; test: Antibacterial activity against Bacteroides fragilis by CLSI M11-A6 agar dilution method
[13] = test system: Actinomyces naeslundii; test: Antibacterial activity against Actinomyces naeslundii by CLSI M11-A6 agar dilution method
[14] = test system: Fusobacterium varium; test: Antibacterial activity against Fusobacterium varium by CLSI M11-A6 agar dilution method
[15] = test system: Streptococcus constellatus; test: Antibacterial activity against Streptococcus constellatus by CLSI M11-A6 agar dilution method
[16] = test system: Clostridium sp.; test: Antibacterial activity against Clostridium sp. by CLSI M11-A6 agar dilution method
[17] = test system: Holdemania filiformis; test: Antibacterial activity against Holdemania filiformis by CLSI M11-A6 agar dilution method
[18] = test system: Clostridium sporosphaeroides; test: Antibacterial activity against Clostridium sporosphaeroides by CLSI M11-A6 agar dilution method; settings: Faecalispora sporosphaeroides
[19] = test system: Peptoniphilus asaccharolyticus; test: Antibacterial activity against Peptoniphilus asaccharolyticus by CLSI M11-A6 agar dilution method
[20] = test system: Catenibacterium mitsuokai; test: Antibacterial activity against Catenibacterium mitsuokai by CLSI M11-A6 agar dilution method
[21] = test system: Prevotella oris; test: Antibacterial activity against Prevotella oris by CLSI M11-A6 agar dilution method; settings: Segatella oris
[22] = test system: Prevotella bivia; test: Antibacterial activity against Prevotella bivia by CLSI M11-A6 agar dilution method
[23] = test system: Prevotella melaninogenica; test: Antibacterial activity against Prevotella melaninogenica by CLSI M11-A6 agar dilution method
[24] = test system: Finegoldia magna; test: Antibacterial activity against Finegoldia magna by CLSI M11-A6 agar dilution method
[25] = test system: Bifidobacterium dentium; test: Antibacterial activity against Bifidobacterium dentium by CLSI M11-A6 agar dilution method
[26] = test system: Blautia producta; test: Antibacterial activity against Ruminococcus productus by CLSI M11-A6 agar dilution method
[27] = test system: Clostridium perfringens; test: Antibacterial activity against Clostridium perfringens by CLSI M11-A6 agar dilution method
[28] = test system: Parabacteroides distasonis; test: Antibacterial activity against Parabacteroides distasonis by CLSI M11-A6 agar dilution method
[29] = test system: Streptococcus intermedius; test: Antibacterial activity against Streptococcus intermedius by CLSI M11-A6 agar dilution method
[30] = test system: Clostridium celerecrescens; test: Antibacterial activity against Clostridium celerecrescens by CLSI M11-A6 agar dilution method; settings: Lacrimispora celerecrescens
[31] = test system: [Clostridium] innocuum; test: Antibacterial activity against Clostridium innocuum by CLSI M11-A6 agar dilution method
[32] = test system: Clostridium disporicum; test: Antibacterial activity against Clostridium disporicum by CLSI M11-A6 agar dilution method
[33] = test system: Bifidobacterium pseudolongum; test: Antibacterial activity against Bifidobacterium pseudolongum by CLSI M11-A6 agar dilution method
[34] = test system: Prevotella buccae; test: Antibacterial activity against Prevotella buccae by CLSI M11-A6 agar dilution method; settings: Segatella buccae
[35] = test system: Bacteroides ovatus; test: Antibacterial activity against Bacteroides ovatus by CLSI M11-A6 agar dilution method
[36] = test system: Hoylesella loescheii; test: Antibacterial activity against Prevotella loescheii by CLSI M11-A6 agar dilution method
[37] = test system: Bacteroides thetaiotaomicron; test: Antibacterial activity against Bacteroides thetaiotaomicron by CLSI M11-A6 agar dilution method
[38] = test system: Clostridium hathewayi; test: Antibacterial activity against Clostridium hathewayi by CLSI M11-A6 agar dilution method; settings: Hungatella hathewayi
[39] = test system: Eggerthella lenta; test: Antibacterial activity against Eggerthella lenta by CLSI M11-A6 agar dilution method
[40] = test system: Clostridium subterminale; test: Antibacterial activity against Clostridium subterminale by CLSI M11-A6 agar dilution method
[41] = test system: Anaerococcus prevotii; test: Antibacterial activity against Anaerococcus prevotii by CLSI M11-A6 agar dilution method
[42] = test system: Clostridium spiroforme; test: Antibacterial activity against Clostridium spiroforme by CLSI M11-A6 agar dilution method; settings: Thomasclavelia spiroformis
[43] = test system: Paraclostridium bifermentans; test: Antibacterial activity against Clostridium bifermentans by CLSI M11-A6 agar dilution method

CN[C@H](CC(C)C)C(=O)N[C@H]1C(=O)N[C@@H](CC(N)=O)C(=O)N[C@H]2C(=O)N[C@H]3C(=O)N[C@H](C(=O)N[C@H](C(=O)O)c4cc(O)cc(O)c4-c4cc3ccc4O)[C@H](O)c3ccc(c(Cl)c3)Oc3cc2cc(c3O[C@@H]2O[C@H](CO)[C@@H](O)[C@H](O)[C@H]2O[C@H]2C[C@](C)(N)[C@H](O)[C@H](C)O2)Oc2ccc(cc2Cl)[C@H]1O [VANCOMYCIN]
2 µg/mL: MIC50 [2] | MIC90 [2] | MIC50 [15] | MIC90 [15] | MIC50 [29] | MIC90 [29]
0.5 µg/mL: MIC50 [1] | MIC50 [4] | MIC50 [6] | MIC50 [9] | MIC50 [13] | MIC50 [17] | MIC50 [19] | MIC50 [20] | MIC50 [24] | MIC50 [25] | MIC50 [26] | MIC [27] | MIC50 [27] | MIC50 [33] | MIC50 [39] | MIC [40] | MIC50 [40] | MIC50 [41]
128 µg/mL: MIC50 [3] | MIC90 [3] | MIC50 [28] | MIC90 [28] | MIC50 [35] | MIC90 [35]
4 µg/mL: MIC90 [4] | MIC90 [5] | MIC90 [7] | MIC90 [10] | MIC90 [13] | MIC90 [16] | MIC90 [17] | MIC90 [18] | MIC90 [20] | MIC90 [25] | MIC90 [30] | MIC90 [32] | MIC90 [33] | MIC90 [39] | MIC90 [42] | MIC90 [43]
64 µg/mL: MIC50 [12] | MIC90 [12]
1 µg/mL: MIC90 [1] | MIC50 [5] | MIC90 [6] | MIC50 [7] | MIC90 [9] | MIC50 [10] | MIC50 [16] | MIC50 [18] | MIC90 [19] | MIC90 [24] | MIC90 [26] | MIC90 [27] | MIC50 [30] | MIC50 [32] | MIC50 [38] | MIC90 [38] | MIC90 [40] | MIC90 [41] | MIC50 [42] | MIC50 [43]
32 µg/mL: MIC50 [8] | MIC50 [11] | MIC50 [21] | MIC50 [22] | MIC50 [23] | MIC50 [34] | MIC50 [36]
> 128 µg/mL: MIC90 [8] | MIC90 [11] | MIC [14] | MIC50 [14] | MIC90 [14] | MIC90 [21] | MIC90 [22] | MIC90 [23] | MIC90 [34] | MIC90 [36] | MIC50 [37] | MIC90 [37]
16 µg/mL: MIC [31] | MIC50 [31] | MIC90 [31]

CCC[C@@H]1C[C@@H](C(=O)N[C@@H]([C@H]2O[C@H](SC)[C@H](O)[C@@H](O)[C@H]2O)[C@H](C)Cl)N(C)C1 [CLINDAMYCIN]
4 µg/mL: MIC90 [2] | MIC90 [5] | MIC90 [7] | MIC90 [10] | MIC90 [16] | MIC90 [18] | MIC90 [30] | MIC90 [32] | MIC50 [37] | MIC90 [42] | MIC90 [43]
32 µg/mL: MIC90 [14]
8 µg/mL: MIC90 [40]
2 µg/mL: MIC50 [2] | MIC50 [3] | MIC90 [6] | MIC90 [26] | MIC90 [27] | MIC50 [28] | MIC50 [35] | MIC90 [38]
64 µg/mL: MIC90 [3] | MIC90 [28]
≤ 0.12 µg/mL: MIC50 [4] | MIC50 [6] | MIC [8] | MIC50 [8] | MIC90 [8] | MIC50 [9] | MIC [11] | MIC50 [11] | MIC90 [11] | MIC50 [13] | MIC50 [17] | MIC50 [20] | MIC [21] | MIC50 [21] | MIC90 [21] | MIC [22] | MIC50 [22] | MIC90 [22] | MIC [23] | MIC50 [23] | MIC90 [23] | MIC50 [25] | MIC50 [26] | MIC50 [33] | MIC [34] | MIC50 [34] | MIC90 [34] | MIC [36] | MIC50 [36] | MIC90 [36] | MIC50 [39]
0.25 µg/mL: MIC90 [9]
> 128 µg/mL: MIC90 [1] | MIC90 [12] | MIC90 [19] | MIC90 [24] | MIC90 [31] | MIC90 [35] | MIC90 [37] | MIC90 [41]
1 µg/mL: MIC90 [4] | MIC90 [13] | MIC50 [14] | MIC90 [17] | MIC90 [20] | MIC90 [25] | MIC50 [31] | MIC90 [33] | MIC90 [39]
0.5 µg/mL: MIC50 [12] | MIC90 [15] | MIC50 [27] | MIC90 [29] | MIC50 [38] | MIC50 [40]

Cc1ncc([N+](=O)[O-])n1CCO [METRONIDAZOLE]
0.5 µg/mL: MIC50 [1] | MIC50 [8] | MIC50 [11] | MIC50 [19] | MIC50 [21] | MIC50 [22] | MIC50 [23] | MIC50 [24] | MIC50 [27] | MIC50 [31] | MIC50 [34] | MIC50 [36] | MIC90 [38] | MIC50 [41]
≤ 0.12 µg/mL: MIC50 [2] | MIC50 [6] | MIC50 [14] | MIC50 [26] | MIC50 [40]
> 128 µg/mL: MIC90 [15] | MIC90 [29]
1 µg/mL: MIC50 [3] | MIC50 [4] | MIC90 [5] | MIC90 [7] | MIC90 [8] | MIC90 [10] | MIC90 [11] | MIC50 [12] | MIC50 [13] | MIC90 [16] | MIC50 [17] | MIC90 [18] | MIC50 [20] | MIC90 [21] | MIC90 [22] | MIC90 [23] | MIC50 [25] | MIC90 [27] | MIC50 [28] | MIC90 [30] | MIC90 [32] | MIC50 [33] | MIC90 [34] | MIC50 [35] | MIC90 [36] | MIC50 [37] | MIC90 [37] | MIC50 [39] | MIC90 [42] | MIC90 [43]
128 µg/mL: MIC90 [4] | MIC90 [13] | MIC50 [15] | MIC90 [17] | MIC90 [20] | MIC90 [25] | MIC50 [29] | MIC90 [33] | MIC90 [39]
0.25 µg/mL: MIC90 [2] | MIC50 [5] | MIC90 [6] | MIC50 [7] | MIC50 [9] | MIC90 [9] | MIC50 [10] | MIC90 [14] | MIC50 [16] | MIC50 [18] | MIC90 [26] | MIC50 [30] | MIC50 [32] | MIC50 [38] | MIC90 [40] | MIC50 [42] | MIC50 [43]
2 µg/mL: MIC90 [1] | MIC90 [3] | MIC90 [12] | MIC90 [19] | MIC90 [24] | MIC90 [28] | MIC90 [35] | MIC90 [41]
4 µg/mL: MIC90 [31]
